# Reference: US20230102836A1, “Amoebicidal Compositions for Contact Lens Solutions” (University of the West of Scotland, priority 2019, published 2023)
# “And” between values parts separate entries of the source, which are not always exact repeats. Equal entries are not always repeated.
# Columns and labels:
# [1] = tested on: Acanthamoeba trophozoites; experiment: Checkerboard dilution QAC-APC interaction (Bliss model); type: cell-based, Acanthamoeba castellanii; conditions: APC12, APC14, APC16; 96 h at 25° C.
# Description: Acanthamoeba trophozoites (10^5 cells/ml. n=5/treatment) treated with 100 μg/ml doubly diluted to 0.06 μg/ml of QAC12 (FIG. 7A), […], QAC16 (FIG. 7C) and QAC18 (FIG. 7D) with APC 12 (i), APCI 4 (ii) and APC16 (iii) for 96 h at 25° C. Cell viability estimated by the alamarBlue assay the dose-response curves used to produce a surface analysis (right panel) and the interaction profile determined using the Bliss model. The degree of interaction characterised by the QCScore heuristic score are produced as heat map (left panel). The colour of each cell in the heatmap and the surface analysis represents the assay response at that dose combination; red to orange, antagonistic: yellow to green, additive and blue, synergistic.
# The change in potency between QAC and APC prompted us to used the checkerboard dilution method to identify synergistic interactions (FIG. 7A-D). Three interaction profiles, antagonistic (orange to red), additive (yellow to green) and synergistic (blue) were observed, with optimal synergistic interactions deemed to be significant occurring between 20-38%; (FIG. 7).
# [2] = tested on: A. castellanii trophozoites; experiment: Cytotoxicity assay on trophozoites (resazurin / alamarBlue); type: cell-based, Acanthamoeba castellanii ATCC 50370; conditions: Acanthamoeba castellanii; Table 2; read-out: IC50 A. castellanii trophozoites
# Description: (§1) Acanthamoeba castellanii ATCC 50370 trophozoites and cysts were cultured in Peptone Glucose (PG) medium and encystment medium (Chagla A H, Griffiths A J (1974) Microbiology: 85(1): 139-145) respectively at 25° C. Cysts were prepared by incubating trophozoites for 8 days in encystment medium and integrity validated with calcofluor (0.25 μg/ml) assay (Gatti S et al (2010) J. Med. Microbiol.; 59: 1324-1330) or sodium dodecyl sulfate (SDS, 0.5% w/v) disintegration assay (Dudley R et al (2005) Acta Trop.; 9: 100-8) and microscopic observation.
# The compounds used in this study all contained alkyl-carbon chains: three APCs [dodecyl-PC (APC12), tetradecyl-PC. (APC14) and hexadecyl-PC (APC16)] (Anatrace) and four QACs [docdecyl-TMAB (QAC12), tetradecyl-TMAB (QAC14), hexadecyl-TMAB (QAC16) and octadecyl-TMAB (QAC18)](Sigma). All were prepared to a stock concentration of 1 mg/ml and diluted as required by the experimental protocol in the cytotoxicity assays. […]
# […] Resazurin (7-Hydroxy-31-phenoxazin-3-one 10-oxide; 5 mg/ml; McBride J et al (2005) J. Clin. Microbiol.; 43: 629-634) and trypan blue (0.4 μg/ml; Mafra C S P et al (2013) Investig. Ophthalmol. Vis. Si.; 54: 6363-6372) were then added to trophozoites and cysts respectively after being exposed to the compounds and the cell viability estimated microscopically and from changes in absorbance (at 595 nm and 570 nm) respectively.
# Efficacy was expressed as a percentage of untreated controls for each drug concentration used and the data used to calculate the IC50. Cell density was estimated using the modified Neubaur hemocytometer and expressed as cells/ml.
# [3] = tested on: A. castellanii trophozoites; experiment: Drug wash-out / alamarBlue-reversion assay, trophozoites; type: cell-based, Acanthamoeba castellanii ATCC 50370
# [4] = tested on: A. castellanii trophozoites; experiment: DNA-agarose gel electrophoresis of gDNA of treated trophozoites; type: cell-based, Acanthamoeba castellanii; conditions: 18.75 μg/ml after 96 h
# Description: (§2) Genomic deoxynucleic acids (gDNA) from 10^8 A. castellanii trophozoites (treated with and without QAC) were extracted from cells harvested by centrifugation (850×g, 10 min), lysed with UNSET buffer (8M urea, 150 μM NaCl, 2% SDS, […] ethylenediaminetetraacetic acid (EDTA), […] Tris-HCl, pH 7.5) and the DNA extracted with phenol-chloroform (1:1 v/v). The biphasic suspension with DNA enriched on the […] was centrifuged (12,000×g for 15 min, 4° C.) for clear separation and transferred to a new microcentrifuge tube. The DNA was precipitated with cold ethanol (100%, v/v) and 0.3M sodium acetate, washed twice with 70% (v/v) ethanol (12,000×g for 10 min, 4° C.), air dried and resuspended in distilled water.
# [5] = tested on: A. castellanii trophozoites; experiment: SDS disintegration of QAC-treated trophozoites; type: cell-based, Acanthamoeba castellanii ATCC 50370; conditions: QAC18-treated, 0.5% SDS for 30 min
# Description: Acanthamoeba trophozoites ([…]) incubated without (FIG. 2A), with QAC18 at 37.5 μg/ml for 1 h at 25° C. (FIG. 2B), and 0.5% SDS for 30 min (FIG. 2C). QAC18 reduced trophozoites sizes from 29.02±0.23 (FIG. 2A) to 7.87 f 0.93 (FIG. 2B) which disintegrated after 30 min treatment with SDS (FIG. 2C).
# as §1
# gDNA from A. castellanii = experiment: QAC-DNA interaction assay; type: binding, Acanthamoeba castellanii; conditions: DNA:QAC ratios 1:0, 1:1, 1:10, 1:20; 15 min
# Description: FIGS. 3A and 3B show the QAC-DNA interaction. The absorbance of genomic DNA (0.6 ng/ml) extracted from A. castellani trophozoites measured at 260 nm with the Nanodrop after incubating for 15 minutes with 0 ng/ml, 0.6 ng/ml, 6 ng/ml or 12 ng/ml of QAC12 (FIG. 3A) or QAC16 (FIG. 3B) to give ratios of 1:0, 1:1, 1:10 and 1:20. DNA absorbance increased and decreased with increased […] and [QAC12] respectively. Data is mean absorbance at 260 nm±SD; n=4 independent experiments performed in triplicates.
# as §2, with “water. […]” for “water.”
compound,measurement,setting,value
"CCCCCCCCCCCCCCCCCC[N+](C)(C)C.[Br-] [QAC18, octadecyltrimethyl ammonium bromide]",Interaction profile of QAC combined with APCs,[1],No significant synergy
same,IC50,[2],1.06 µg/mL and 3 µM
same,Back transformation to trophozoites after drug wash-out,"[3]; 9.375 μg/ml, 1 h",+
same,Back transformation to trophozoites after drug wash-out,"[3]; 9.375 μg/ml, 24 h",−
same,Back transformation to trophozoites after drug wash-out,"[3]; 9.375 μg/ml, 48 h",−
same,Back transformation to trophozoites after drug wash-out,"[3]; 9.375 μg/ml, 72 h",−
same,Back transformation to trophozoites after drug wash-out,"[3]; 9.375 μg/ml, 96 h",−
same,Back transformation to trophozoites after drug wash-out,"[3]; 18.75 μg/ml, 1 h",+
same,Back transformation to trophozoites after drug wash-out,"[3]; 18.75 μg/ml, 24 h",−
same,Back transformation to trophozoites after drug wash-out,"[3]; 18.75 μg/ml, 48 h",−
same,Back transformation to trophozoites after drug wash-out,"[3]; 18.75 μg/ml, 72 h",−
same,Back transformation to trophozoites after drug wash-out,"[3]; 18.75 μg/ml, 96 h",−
same,Back transformation to trophozoites after drug wash-out,"[3]; 37.50 μg/ml, 1 h",−
same,Back transformation to trophozoites after drug wash-out,"[3]; 37.50 μg/ml, 24 h",−
same,Back transformation to trophozoites after drug wash-out,"[3]; 37.50 μg/ml, 48 h",−
same,Back transformation to trophozoites after drug wash-out,"[3]; 37.50 μg/ml, 72 h",−
same,Back transformation to trophozoites after drug wash-out,"[3]; 37.50 μg/ml, 96 h",−
same,Amoebotoxicity after wash-out and replacement with PG medium,[3]; after 24 h at 9.375 μg/ml,amoebotoxic
same,Amoebotoxicity after wash-out and replacement with PG medium,[3]; from 1 h onwards at 37.5 μg/ml,amoebotoxic
same,Fragmented DNA profile that depicts death via apoptosis,[4],not observed
same,Disintegration of shrunk treated trophozoites by 0.5% SDS,[5],92%
same,Change of gDNA absorbance at 260 nm with increasing QAC,gDNA from A. castellanii,progressively increased absorbance
